This is an account of results in US10034477B2, “Pyrido-1,3-oxazine-2,4-dione compounds with fungicidal activity” (Dow AgroSciences LLC, priority 2016, dated 2018).

What all share (type): in vivo
For one experiment, the system named is Phakopsora pachyrhizi. Nature of the experiment: Fungicidal activity: Asian soybean rust (PHAKPA), disease control on soybean seedlings. Conditions: soybean (variety Williams 82). The protocol: Technical grades of materials were dissolved in acetone, which were then mixed with nine volumes of H2O containing 0.011% Tween 20. The fungicide solutions were applied onto soybean seedlings using an automated booth sprayer to run-off. All sprayed plants were allowed to air dry prior to further handling. Soybean plants (variety Williams 82) were grown in soil-less Metro mix, with one plant per pot. Two week old seedlings were used for testing. Plants were inoculated either 3 days prior to or 1 day after fungicide treatments. Plants were incubated for 24 h in a dark dew room at 22° C. and 100% relative humidity then transferred to a growth room at 23° C. for disease to develop. Disease severity was assessed on the sprayed leaves.

Another experiment has as its system Zymoseptoria tritici. Nature of the experiment: Fungicidal activity: leaf blotch of wheat (SEPTTR), disease control on wheat seedlings. Conditions: LV activity at 121.5 g/H, wheat (variety Yuma). The protocol:
(§1) Technical grades of materials were dissolved in acetone, which were then mixed with nine volumes of water (H2O) containing 110 ppm Triton X-100. The fungicide solutions were applied onto wheat seedlings using an automated booth sprayer to run-off. All sprayed plants were allowed to air dry prior to further handling. All fungicides were evaluated using the aforementioned method for their activity vs. all target diseases, unless stated otherwise. Wheat leaf blotch and brown rust activity were also evaluated using track spray applications, in which case the fungicides were formulated as EC formulations, containing 0.1% Trycol 5941 in the spray solutions. Wheat plants (variety Yuma) were grown from seed in a greenhouse in 50% mineral soil/50% soil-less Metro mix until the first leaf was fully emerged, with 7-10 seedlings per pot. These plants were inoculated with an aqueous spore suspension of Zymoseptoria tritici either prior to or after fungicide treatments. After inoculation the plants were kept in 100% relative humidity (one day in a dark dew chamber followed by two to three days in a lighted dew chamber at 20° C.) to permit spores to germinate and infect the leaf. The plants were then transferred to a greenhouse set at 20° C. for disease to develop. When disease symptoms were fully expressed on the 1st leaves of untreated plants, infection levels were assessed on a scale of 0 to 100 percent disease severity. Percent disease control was calculated using the ratio of disease severity on treated plants relative to untreated plants.

The test system of a further experiment is Puccinia triticina. Description: Fungicidal activity: wheat brown rust (PUCCRT), disease control on wheat seedlings. To be noted: LV activity at 121.5 g/H, wheat (variety Yuma). The protocol:
as §1, with “plants. Wheat plants (variety Yuma) were grown from seed in a greenhouse in 50% mineral soil/50% soil-less Metro mix until the first leaf was fully emerged, with 7-10 seedlings per pot. These plants were inoculated with an aqueous spore suspension of Puccinia triticina either prior to or after fungicide treatments. After inoculation the plants were kept in a dark dew room at 22° C. with 100% relative humidity overnight to permit spores to germinate and infect the leaf. The plants were then transferred to a greenhouse set at 24° C. for disease to develop. Fungicide formulation, application and disease assessment followed the procedures as described in the Example A. Results of the evaluations are shown below in Table 4.” for “plants.”

Setting [1] is: 24 h, 1 Day Protectant, read-out: PHAKPA 1DP disease control rating.
The mark [2] stands for this setting: 24 h, 1 Day Protectant, read-out: SEPTTR 1DP disease control rating.
Setting [3] is: 72 h, 3 Day Curative, read-out: SEPTTR 3DC disease control rating.
Where [4] appears, read: 24 h, 1 Day Protectant, read-out: PUCCRT 1DP disease control rating.
The mark [5] stands for this setting: 72 h, 3 Day Curative, read-out: PUCCRT 3DC disease control rating.
Setting [6] is: 72 h, 3 Day Curative, read-out: PHAKPA 3DC disease control rating.

Where two headings read alike, the source gives them in different places. Some results are limits rather than exact numbers.

For `COc1ccnc2c(=O)n([C@@H](C)C(=O)O[C@@H](C)[C@H](c3ccc(C)cc3)c3ccc(C)cc3F)c(=O)oc12` [Compound 25], the pest or weed control at 25 ppm in the experiment on Phakopsora pachyrhizi (setting [1]) is not above 80%. Moreover, the pest or weed control at 121.5 g/ha in the experiment with Zymoseptoria tritici (setting [2]) is more than 80%; with Zymoseptoria tritici (setting [3]) it was more than 80%; in the experiment on Puccinia triticina (setting [4]), more than 80%; in the experiment on Puccinia triticina (setting [5]), not above 80%.

For `COc1cc(F)ccc1[C@@H](c1ccc(F)c(C)c1)[C@H](C)OC(=O)[C@H](C)n1c(=O)oc2c(OC)ccnc2c1=O` [Compound 7], the pest or weed control at 121.5 g/ha with Zymoseptoria tritici (setting [2]), in the experiment with Zymoseptoria tritici (setting [3]) and with Puccinia triticina (setting [4]) was more than 80% each time.

For `COc1ccnc2c(=O)n([C@@H](C)C(=O)O[C@@H](C)[C@@H](c3ccc(F)cc3)c3ccc(F)cc3C)c(=O)oc12` [Compound 19], the pest or weed control at 25 ppm was more than 80% in the experiment on Phakopsora pachyrhizi (setting [1]) and not above 80% in the experiment on Phakopsora pachyrhizi (setting [6]). The pest or weed control at 121.5 g/ha in the experiment on Zymoseptoria tritici (setting [2]) is more than 80%; in the experiment with Zymoseptoria tritici (setting [3]), more than 80%; in the experiment on Puccinia triticina (setting [4]) it was more than 80%; with Puccinia triticina (setting [5]) it was not above 80%.

`CC[C@H](OC(=O)[C@H](C)n1c(=O)oc2c(OC)ccnc2c1=O)[C@@H](C)Oc1ccccc1` [Compound 6]: the pest or weed control at 121.5 g/ha with Zymoseptoria tritici (setting [3]) and in the experiment with Puccinia triticina (setting [5]) was not above 80% in each case.

Consider `COc1ccc(C(c2ccc(OC)cc2OC)[C@H](C)OC(=O)[C@H](C)n2c(=O)oc3c(OC)ccnc3c2=O)c(OC)c1` [Compound 8], for which the pest or weed control at 121.5 g/ha in the experiment on Zymoseptoria tritici (setting [2]) is more than 80%; with Zymoseptoria tritici (setting [3]) it was more than 80%; in the experiment with Puccinia triticina (setting [4]), not above 80%; with Puccinia triticina (setting [5]) it was not above 80%.

In the case of `CCC(CC)[C@@H](Oc1cccc(Cl)c1)[C@H](C)OC(=O)[C@H](C)n1c(=O)oc2c(OC)ccnc2c1=O` [Compound 9], the pest or weed control at 121.5 g/ha in the experiment on Zymoseptoria tritici (setting [2]) was not above 80%; in the experiment with Zymoseptoria tritici (setting [3]) it was not above 80%; in the experiment on Puccinia triticina (setting [4]) it was more than 80%; in the experiment with Puccinia triticina (setting [5]), not above 80%.

As to `COc1ccc(O[C@@H](C)[C@H](OC(=O)[C@H](C)n2c(=O)oc3c(OC)ccnc3c2=O)C(C)C)cc1` [Compound 23], the pest or weed control at 25 ppm was more than 80% in the experiment on Phakopsora pachyrhizi (setting [1]) and not above 80% in the experiment with Phakopsora pachyrhizi (setting [6]). Further, the pest or weed control at 121.5 g/ha is not above 80% in the experiment with Zymoseptoria tritici (setting [2]), more than 80% in the experiment with Zymoseptoria tritici (setting [3]), more than 80% in the experiment on Puccinia triticina (setting [4]) and more than 80% with Puccinia triticina (setting [5]).

On to `CCC(CC)[C@@H](Oc1ccc(Cl)cc1)[C@H](C)OC(=O)[C@H](C)n1c(=O)oc2c(OC)ccnc2c1=O` [Compound 5], for which the pest or weed control at 121.5 g/ha was more than 80% with Zymoseptoria tritici (setting [2]), not above 80% in the experiment with Zymoseptoria tritici (setting [3]), more than 80% in the experiment with Puccinia triticina (setting [4]) and not above 80% in the experiment on Puccinia triticina (setting [5]).

For `COc1ccnc2c(=O)n([C@@H](C)C(=O)O[C@@H](C)[C@@H](c3ccccc3)c3ccc(F)c(C)c3)c(=O)oc12` [Compound 22], the pest or weed control at 25 ppm in the experiment with Phakopsora pachyrhizi (setting [1]) and with Phakopsora pachyrhizi (setting [6]) was not above 80% in each case. Moreover, the pest or weed control at 121.5 g/ha was more than 80% in the experiment on Zymoseptoria tritici (setting [2]), more than 80% with Zymoseptoria tritici (setting [3]), more than 80% with Puccinia triticina (setting [4]) and not above 80% in the experiment with Puccinia triticina (setting [5]).

As to `COc1ccnc2c(=O)n([C@@H](C)C(=O)O[C@@H](C)[C@H](c3ccccc3)c3ccc(C)cc3F)c(=O)oc12` [Compound 17], the pest or weed control at 121.5 g/ha in the experiment on Zymoseptoria tritici (setting [2]), in the experiment on Zymoseptoria tritici (setting [3]) and in the experiment with Puccinia triticina (setting [4]) was more than 80% in each case.

On to `COc1cc(F)ccc1[C@@H](c1ccc(F)cc1)[C@H](C)OC(=O)[C@H](C)n1c(=O)oc2c(OC)ccnc2c1=O` [Compound 20], for which the pest or weed control at 121.5 g/ha with Zymoseptoria tritici (setting [2]) was more than 80%; in the experiment with Zymoseptoria tritici (setting [3]), more than 80%; in the experiment on Puccinia triticina (setting [4]) it was more than 80%; in the experiment on Puccinia triticina (setting [5]) it was not above 80%.

With `CCC(CC)[C@@H](Oc1ccccc1Cl)[C@H](C)OC(=O)[C@H](C)n1c(=O)oc2c(OC)ccnc2c1=O` [Compound 16], the pest or weed control at 121.5 g/ha with Zymoseptoria tritici (setting [2]) was not above 80%; in the experiment with Zymoseptoria tritici (setting [3]), more than 80%; in the experiment with Puccinia triticina (setting [4]), more than 80%; in the experiment on Puccinia triticina (setting [5]) it was not above 80%.

`COc1ccnc2c(=O)n([C@@H](C)C(=O)O[C@@H](C)[C@H](Oc3ccccc3)C(C)(C)C)c(=O)oc12` [Compound 4]: the pest or weed control at 121.5 g/ha with Zymoseptoria tritici (setting [3]) is not above 80%; with Puccinia triticina (setting [4]), more than 80%; in the experiment on Puccinia triticina (setting [5]), more than 80%.

Take `CCCCC[C@H](OC(=O)[C@H](C)n1c(=O)oc2c(OC)ccnc2c1=O)[C@@H](C)Oc1ccccc1` [Compound 13]: the pest or weed control at 25 ppm with Phakopsora pachyrhizi (setting [6]) is not above 80%. Moreover, the pest or weed control at 121.5 g/ha in the experiment on Zymoseptoria tritici (setting [2]) and in the experiment with Zymoseptoria tritici (setting [3]) was not above 80% in each case.

Turning to `CCC[C@@H](Oc1cccc(OC)c1)[C@H](C)OC(=O)[C@H](C)n1c(=O)oc2c(OC)ccnc2c1=O` [Compound 10], the pest or weed control at 121.5 g/ha with Zymoseptoria tritici (setting [3]), in the experiment on Puccinia triticina (setting [4]) and with Puccinia triticina (setting [5]) was more than 80% in each case.

With `COc1ccnc2c(=O)n([C@@H](C)C(=O)O[C@@H](C)[C@H](c3ccc(F)cc3)c3ccc(F)cc3C)c(=O)oc12` [Compound 11], the pest or weed control at 121.5 g/ha in the experiment on Zymoseptoria tritici (setting [2]) was more than 80%; in the experiment with Zymoseptoria tritici (setting [3]), more than 80%; with Puccinia triticina (setting [4]) it was not above 80%.

`COc1ccnc2c(=O)n([C@H](C)C(=O)O[C@H](C)C(c3ccc(F)cc3)c3ccc(F)cc3)c(=O)oc12` [Compound 34]: the pest or weed control at 25 ppm in the experiment on Phakopsora pachyrhizi (setting [1]) and in the experiment with Phakopsora pachyrhizi (setting [6]) was not above 80% in each case.

Take `COc1ccnc2c(=O)n([C@@H](C)C(=O)O[C@H](C)C(c3ccc(F)cc3)c3ccc(F)cc3)c(=O)oc12` [Compound 29]: the pest or weed control at 25 ppm in the experiment on Phakopsora pachyrhizi (setting [6]) is not above 80%. Also, the pest or weed control at 121.5 g/ha with Zymoseptoria tritici (setting [3]) was not above 80%.

As to `COc1ccnc2c(=O)n([C@@H](C)C(=O)O[C@@H](C)C(c3ccc(F)cc3F)c3ccc(F)cc3F)c(=O)oc12` [Compound 2], the pest or weed control at 121.5 g/ha in the experiment on Zymoseptoria tritici (setting [2]) is more than 80%; with Zymoseptoria tritici (setting [3]) it was more than 80%; with Puccinia triticina (setting [4]), more than 80%; in the experiment on Puccinia triticina (setting [5]), not above 80%.

On to `COc1ccnc2c(=O)n([C@@H](C)C(=O)O[C@@H](C)[C@H](Oc3ccccc3)c3ccc(F)cc3Cl)c(=O)oc12` [Compound 15], for which the pest or weed control at 121.5 g/ha with Zymoseptoria tritici (setting [2]) was more than 80%; in the experiment with Zymoseptoria tritici (setting [3]), more than 80%; with Puccinia triticina (setting [4]) it was more than 80%; in the experiment on Puccinia triticina (setting [5]) it was not above 80%.

Take `CCC[C@H](OC(=O)[C@H](C)n1c(=O)oc2c(OC)ccnc2c1=O)[C@@H](C)Oc1ccccc1` [Compound 35]: in the experiment on Phakopsora pachyrhizi (setting [6]), the pest or weed control at 25 ppm was not above 80%. For the same molecule, the pest or weed control at 121.5 g/ha in the experiment with Zymoseptoria tritici (setting [3]) was not above 80%.

Regarding `COc1ccnc2c(=O)n([C@@H](C)C(=O)O[C@@H](C)C(c3cccc(F)c3)c3cccc(F)c3)c(=O)oc12` [Compound 14], the pest or weed control at 121.5 g/ha in the experiment with Zymoseptoria tritici (setting [2]) is more than 80%; in the experiment with Zymoseptoria tritici (setting [3]), more than 80%; in the experiment on Puccinia triticina (setting [4]), not above 80%; in the experiment with Puccinia triticina (setting [5]), not above 80%.
